The text below walks through data of patent US10336762B2 (priority 2017, dated 2019).

Like-named read-outs stand apart in the source and are kept apart here. Some results are limits rather than exact numbers.

One test deals with TNFα. Nature of the test: cells. Format: cell-based, human. Particulars: LPS-stimulated human monocytes, read-out: EC50 TNF.
Another test addresses IRAK4 enzyme (Homo sapiens (Human), UniProt Q9NWZ3). Put plainly: biochemical. The format is biochemical. The note with it: IRAK4 enzyme, 500 μM ATP.
[1] abbreviates: Homo sapiens, Monocyte, TNFα content.

Sequence of IRAK4 enzyme (Q9NWZ3 whole entry): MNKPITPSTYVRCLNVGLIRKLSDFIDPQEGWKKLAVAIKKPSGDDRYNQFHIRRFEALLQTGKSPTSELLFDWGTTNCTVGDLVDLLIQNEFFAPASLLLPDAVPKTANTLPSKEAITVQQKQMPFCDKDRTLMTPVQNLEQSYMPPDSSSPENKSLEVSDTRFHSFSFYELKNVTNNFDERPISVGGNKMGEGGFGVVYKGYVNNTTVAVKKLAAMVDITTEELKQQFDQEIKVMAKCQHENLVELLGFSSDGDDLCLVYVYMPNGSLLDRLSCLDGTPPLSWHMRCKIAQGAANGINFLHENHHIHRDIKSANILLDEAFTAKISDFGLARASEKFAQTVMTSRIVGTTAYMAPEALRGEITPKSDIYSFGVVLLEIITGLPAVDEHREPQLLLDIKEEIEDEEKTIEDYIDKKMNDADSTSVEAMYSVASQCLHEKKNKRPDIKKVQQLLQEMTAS
Protocol for TNFα: IRAK4 Monocyte TNFα Cell Based Assay Procedure:
The cell suspension was then plated at a density of 5,000 cells/well onto black 384 well Greiner clear bottom plates. Plates were pre-spotted with test compounds and serially diluted in DMSO where 200 nL/well were delivered using the Echo 550 acoustic liquid dispenser (Labcyte®) for a final DMSO concentration of 0.5%. Plated cells were treated with compound for 1 hour at 37° C. Cells were then stimulated with 50 pg/ml of LPS (Sigma) excluding outside columns of plate used for unstimulated cell control wells. Cells were incubated for an additional 4 hours at 37° C. Cells were then spun out of the media and 5 μl of sample were taken and analyzed for total TNFα content using the TR-FRET Human TNFα detection system (CisBio). This system utilizes two labeled antibodies (cryptate and XL665) that bind to two different epitopes of the TNFα molecule and produce FRET signal proportional to the concentration of TNFα in the sample. Detection antibodies are mixed 50:50 and 5 μL were dispensed into each well. Plates were covered with clear seals and incubated at room temp overnight. […] Percent of control was calculated as follows: % Control=100×(RatioSample−Ratio0% stimulation)/(Ratio100% Stimulation−Ratio0% Stimulation) where unstimulated cells (0% stimulation) were the negative control and stimulated cells (100% stimulation) were used as the positive control.

Usually EC50 stands for the concentration at which the effect is half-maximal. As a reminder, the IC50 is the concentration at which inhibition is half-maximal. Read a low IC50 as greater potency in that assay. `CC(C)(O)[C@H](F)CNC(=O)c1cnc(-c2ccc3cc(C#N)cnn23)cc1NC1CCC(C)(N2CCOCC2)CC1` (single isomer, unassigned) [Example 690]: in the test on TNFα (TNFα content), the EC50 was determined as 71 nM. At IRAK4 enzyme (TR-FRET (HTRF)), this molecule displayed an IC50 of 1 nM.

Consider `CC(C)(O)[C@H](F)CNC(=O)c1cnc(-c2ccc3cc(C#N)cnn23)cc1NC1CCC(C)(N2CCOCC2)CC1` (single isomer, unassigned) [Example 691], for which, in the test with TNFα (TNFα content), the EC50 turned out to be 345 nM. On IRAK4 enzyme (TR-FRET (HTRF)), this molecule displayed an IC50 of 5 nM.

In the case of `COC(=O)NC1CC2(C1)CC(Nc1cc(-c3ccc4cc(C#N)cnn34)ncc1C(=O)NC[C@@H](F)C(C)(C)O)C2` (single isomer, unassigned) [Example 756], in the test with TNFα (TNFα content), the concentration for a half-maximal effect (EC50) is 59 nM. For the same molecule, the concentration for half-maximal inhibition (IC50) against IRAK4 enzyme (TR-FRET (HTRF)) is 1 nM.

For the molecule `COC(=O)NC1CC2(C1)CC(Nc1cc(-c3ccc4cc(C#N)cnn34)ncc1C(=O)NC[C@@H](F)C(C)(C)O)C2` (single isomer, unassigned) [Example 757], in the test on TNFα (TNFα content), the EC50 is 12 nM. On IRAK4 enzyme (TR-FRET (HTRF)), this molecule returned an IC50 of less than 1 nM.

Regarding `COC(=O)NCC1(O)CC(Nc2cc(-c3ccc4cc(C#N)cnn34)ncc2C(=O)NC[C@@H](F)C(C)(C)O)C1` (single isomer, unassigned) [Example 759], the concentration for a half-maximal effect (EC50) with TNFα (TNFα content) is greater than 10000 nM. This molecule also came in with an IC50 against IRAK4 enzyme (TR-FRET (HTRF)) of 3 nM.

With `COC(=O)NCC1(O)CC(Nc2cc(-c3ccc4cc(C#N)cnn34)ncc2C(=O)NC[C@@H](F)C(C)(C)O)C1` (single isomer, unassigned) [Example 760], the EC50 in the test with TNFα (TNFα content) amounted to 33 nM. For the same molecule, the IC50 on IRAK4 enzyme (TR-FRET (HTRF)) was less than 1 nM.

Regarding `COC(=O)NCC1(F)CC(Nc2cc(-c3ccc4cc(C#N)cnn34)ncc2C(=O)NC[C@@H](F)C(C)(C)O)C1` (single isomer, unassigned) [Example 764], the EC50 in the test with TNFα (TNFα content) turned out to be 8 nM. Also, the IC50 against IRAK4 enzyme (TR-FRET (HTRF)) was less than 1 nM.

`COC(=O)NCC1(F)CC(Nc2cc(-c3ccc4cc(C#N)cnn34)ncc2C(=O)NC[C@@H](F)C(C)(C)O)C1` (single isomer, unassigned) [Example 765]: the EC50 in the test with TNFα (TNFα content) was found to be 323 nM. For the same molecule, it took 6 nM to reach half-maximal inhibition on IRAK4 enzyme (TR-FRET (HTRF)) (IC50).

Turning to `CC(C)(O)[C@H](F)CNC(=O)c1cnc(-c2ccc3cc(C#N)cnn23)cc1Nc1cnn(C2CNCC2(F)F)c1` (single isomer, unassigned) [Example 868], the EC50 with TNFα (TNFα by TR-FRET) is 53 nM. On IRAK4 enzyme (TR-FRET), this molecule gave an IC50 of less than 1 nM.

Turning to `CC(C)(O)[C@H](F)CNC(=O)c1cnc(-c2ccc3cc(C#N)cnn23)cc1Nc1cnn(C2CNCC2(F)F)c1` (single isomer, unassigned) [Example 869], the EC50 in the test on TNFα (TNFα by TR-FRET) was 14 nM. This molecule registered an IC50 against IRAK4 enzyme (TR-FRET) of less than 1 nM.

For `CC1(Nc2cc(-c3ccc4cc(C#N)cnn34)ncc2C(=O)NC[C@@H](F)C(C)(C)O)COC1` [Example 1, (R)-6-(3-cyanopyrrolo[1,2-b]pyridazin-7-yl)-N-(2-fluoro-3-hydroxy-3-methylbutyl)-4-((3-methyloxetan-3-yl)amino)nicotinamide], the EC50 in the test with TNFα (setting [1]) turned out to be 32 nM. For the same molecule, the IC50 on IRAK4 enzyme (TR-FRET) is less than 1 nM.

Regarding `CC(C)(O)[C@H](F)CNC(=O)c1cnc(-c2ccc3cc(C#N)cnn23)cc1N[C@H]1CCC[C@@H](O)C1` [Example 2, 6-(3-cyanopyrrolo[1,2-b]pyridazin-7-yl)-N-((R)-2-fluoro-3-hydroxy-3-methylbutyl)-4-(((1S,3R)-3-hydroxycyclohexyl)amino)nicotinamide], the 50% effective concentration (EC50) with TNFα (setting [1]) came out at 9 nM. At IRAK4 enzyme (TR-FRET), this molecule yielded a half-inhibitory concentration (IC50) of less than 1 nM.

Take `CC(C)Nc1cc(-c2ccc3cc(C#N)cnn23)ncc1C(=O)N[C@H]1CC[C@H](C(C)(C)O)CC1` [Example 3, 6-(3-cyanopyrrolo[1,2-b]pyridazin-7-yl)-N-((1r,4r)-4-(2-hydroxypropan-2-yl)cyclohexyl)-4-(isopropylamino)nicotinamide]: the EC50 in the test with TNFα (setting [1]) is 62 nM. This molecule also came in with an IC50 at IRAK4 enzyme (TR-FRET) of less than 1 nM.

Take `CC(C)(O)[C@H](F)CNC(=O)c1cnc(-c2ccc3cc(C#N)cnn23)cc1Nc1cccnc1` [Example 4, (R)-6-(3-cyanopyrrolo[1,2-b]pyridazin-7-yl)-N-(2-fluoro-3-hydroxy-3-methylbutyl)-4-(pyridin-3-ylamino)nicotinamide]: the EC50 in the test on TNFα (setting [1]) is 33 nM. On IRAK4 enzyme (TR-FRET), this molecule came in with an IC50 of less than 1 nM.

On to `CC(C)Nc1cc(-c2ccc3cc(C#N)cnn23)ncc1C(=O)NC1CC2(C1)CC(C(C)(C)O)C2` (stereo not drawn) [Example 5, 6-(3-cyanopyrrolo[1,2-b]pyridazin-7-yl)-N-(6-(2-hydroxypropan-2-yl)spiro[3.3]heptan-2-yl)-4-(isopropylamino)nicotinamide], for which the EC50 with TNFα (setting [1]) came out at 207 nM. The molecule further returned an IC50 at IRAK4 enzyme (TR-FRET) of less than 1 nM.

Consider `CC(C)Nc1cc(-c2ccc3cc(C#N)cnn23)ncc1C(=O)NC1CCOCC1` [Example 6, 6-(3-cyanopyrrolo[1,2-b]pyridazin-7-yl)-4-(isopropylamino)-N-(tetrahydro-2H-pyran-4-yl)nicotinamide], for which the half-maximal effective concentration (EC50) in the test with TNFα (setting [1]) is 152 nM. Further, at IRAK4 enzyme (TR-FRET), 5 nM corresponded to half-maximal inhibition (IC50).

For the molecule `CC(C)Nc1cc(-c2ccc3cc(C#N)cnn23)ncc1C(=O)NC1COC1` [Example 7, 6-(3-cyanopyrrolo[1,2-b]pyridazin-7-yl)-4-(isopropylamino)-N-(oxetan-3-yl)nicotinamide], in the test on TNFα (setting [1]), the EC50 is 442 nM. This molecule displayed an IC50 on IRAK4 enzyme (TR-FRET) of 5 nM.

`CC(C)(O)[C@H](F)CNC(=O)c1cnc(-c2ccc3cc(C#N)cnn23)cc1NC1CNC(=O)C1` (stereo partly drawn) [Example 8, 6-(3-cyanopyrrolo[1,2-b]pyridazin-7-yl)-N-((R)-2-fluoro-3-hydroxy-3-methylbutyl)-4-((5-oxopyrrolidin-3-yl)amino)nicotinamide]: the EC50 in the test on TNFα (setting [1]) was found to be 774 nM. On IRAK4 enzyme (TR-FRET), this molecule registered an IC50 of less than 1 nM.

Turning to `CC(C)Nc1cc(-c2ccc3cc(C(N)=O)cnn23)ncc1C(=O)NCC1CCS(=O)(=O)C1` (stereo not drawn) [Example 9, 7-(5-(((1,1-dioxidotetrahydrothiophen-3-yl)methyl)carbamoyl)-4-(isopropylamino)pyridin-2-yl)pyrrolo[1,2-b]pyridazine-3-carboxamide], in the test with TNFα (setting [1]), the EC50 was determined as 5100 nM. The molecule further had a half-inhibitory concentration (IC50) on IRAK4 enzyme (TR-FRET) of 16 nM.

Take `CC(C)(O)[C@H](F)CNC(=O)c1cnc(-c2ccc3cc(C#N)cnn23)cc1NS(C)(=O)=O` [Example 10, (R)-6-(3-cyanopyrrolo[1,2-b]pyridazin-7-yl)-N-(2-fluoro-3-hydroxy-3-methylbutyl)-4-(methylsulfonamido)nicotinamide]: the EC50 in the test with TNFα (setting [1]) was greater than 10000 nM. The IC50 at IRAK4 enzyme (TR-FRET) is 234 nM.

On to `CC(C)(O)[C@H](F)CNC(=O)c1cnc(-c2ccc3cc(C#N)cnn23)cc1N` [Example 11, (R)-4-amino-6-(3-cyanopyrrolo[1,2-b]pyridazin-7-yl)-N-(2-fluoro-3-hydroxy-3-methylbutyl)nicotinamide], for which, in the test with TNFα (setting [1]), the EC50 worked out at 1040 nM. In addition, at IRAK4 enzyme (TR-FRET), the IC50 is 7 nM.

With `CC(C)Nc1cc(-c2ccc3cc(C#N)cnn23)ncc1C(=O)N[C@H]1CC[C@H](N)CC1` [Example 12, N-((1r,4r)-4-aminocyclohexyl)-6-(3-cyanopyrrolo[1,2-b]pyridazin-7-yl)-4-(isopropylamino)nicotinamide], the EC50 in the test with TNFα (setting [1]) amounted to 97 nM. The same molecule yielded a 50% inhibitory concentration (IC50) against IRAK4 enzyme (TR-FRET) of 2 nM.

On to `CC(=O)N[C@H]1CC[C@H](NC(=O)c2cnc(-c3ccc4cc(C#N)cnn34)cc2NC(C)C)CC1` [Example 13, N-((1r,4r)-4-acetamidocyclohexyl)-6-(3-cyanopyrrolo[1,2-b]pyridazin-7-yl)-4-(isopropylamino)nicotinamide], for which, in the test with TNFα (setting [1]), the EC50 is 79 nM. The same molecule gave an IC50 against IRAK4 enzyme (TR-FRET) of less than 1 nM.

In the case of `CC(C)(O)[C@H](F)CNC(=O)c1cnc(-c2ccc3cc(C#N)cnn23)cc1NC1CC2CCC(C1)N2` (stereo partly drawn) [Example 14, 4-(((1R,3r,5S)-8-azabicyclo[3.2.1]octan-3-yl)amino)-6-(3-cyanopyrrolo[1,2-b]pyridazin-7-yl)-N-((R)-2-fluoro-3-hydroxy-3-methylbutyl)nicotinamide], the EC50 with TNFα (setting [1]) came out at 626 nM. The same molecule displayed an IC50 against IRAK4 enzyme (TR-FRET) of 3 nM.

Consider `CC(C)(O)[C@H](F)CNC(=O)c1cnc(-c2ccc3cc(C#N)cnn23)cc1NC1CC2CCC(C1)N2S(C)(=O)=O` (stereo partly drawn) [Example 15, 6-(3-cyanopyrrolo[1,2-b]pyridazin-7-yl)-N-((R)-2-fluoro-3-hydroxy-3-methylbutyl)-4-(((1R,3r,5S)-8-(methylsulfonyl)-8-azabicyclo[3.2.1]octan-3-yl)amino)nicotinamide], for which, in the test on TNFα (TNFα content), the EC50 stood at 302 nM. The IC50 on IRAK4 enzyme (TR-FRET) is 4 nM.

Consider `CC(=O)N1CCC(Nc2cc(-c3ccc4cc(C#N)cnn34)ncc2C(=O)NC[C@@H](F)C(C)(C)O)CC1` [Example 16, (R)-4-((1-acetylpiperidin-4-yl)amino)-6-(3-cyanopyrrolo[1,2-b]pyridazin-7-yl)-N-(2-fluoro-3-hydroxy-3-methylbutyl)nicotinamide], for which, in the test on TNFα (setting [1]), the 50% effective concentration (EC50) was 204 nM. This molecule also returned an IC50 on IRAK4 enzyme (TR-FRET) of 2 nM.

As for `CC(C)Nc1cc(-c2ccc3cc(-c4nnn[nH]4)cnn23)ncc1C(=O)NC[C@@H](F)C(C)(C)O` [Example 17, (R)-6-(3-(1H-tetrazol-5-yl)pyrrolo[1,2-b]pyridazin-7-yl)-N-(2-fluoro-3-hydroxy-3-methylbutyl)-4-(isopropylamino)nicotinamide], the EC50 in the test with TNFα (setting [1]) was found to be 5200 nM. This molecule came in with an IC50 against IRAK4 enzyme (TR-FRET) of 24 nM.

Turning to `CC(C)Nc1cc(-c2ccc3cc(C#N)cnn23)ncc1C(=O)NCCS(N)(=O)=O` [Example 20, 6-(3-cyanopyrrolo[1,2-b]pyridazin-7-yl)-4-(isopropyl-amino)-N-(2-sulfamoylethyl)nicotinamide], the EC50 in the test with TNFα (setting [1]) amounted to 128 nM. This molecule also gave an IC50 against IRAK4 enzyme (TR-FRET) of 2 nM.

With `CC(C)Nc1cc(-c2ccc3cc(C#N)cnn23)ncc1C(=O)NCCc1ccc(S(N)(=O)=O)cc1` [Example 21, 6-(3-cyanopyrrolo[1,2-b]pyridazin-7-yl)-4-(isopropylamino)-N-(4-sulfamoylphenethyl) nicotinamide], the EC50 with TNFα (setting [1]) was found to be 69 nM. This molecule also returned an IC50 against IRAK4 enzyme (TR-FRET) of less than 1 nM.

In the case of `CNC(=O)C1CCC(NC(=O)c2cnc(-c3ccc4cc(C#N)cnn34)cc2NC(C)C)CC1` (stereo not drawn) [Example 22, 6-(3-cyanopyrrolo[1,2-b]pyridazin-7-yl)-4-(isopropyl-amino)-N-((1r,4r)-4-(methylcarbamoyl)cyclohexyl) nicotinamide], the concentration giving a half-maximal response (EC50) with TNFα (setting [1]) stood at 87 nM. On IRAK4 enzyme (TR-FRET), the IC50 is less than 1 nM.
